Source: patent US20240279207A1, “SUBSTITUTED ACYL SULFONAMIDES FOR TREATING CANCER” (The Broad Institute, Inc., priority 2020, published 2024)
Like-named read-outs stand apart in the source and are kept apart here.

Experiments:
LCLC97TM1 = LCLC97TM1 proliferation assay; format: cell-based; conditions: Homo sapiens, LCLC-97TM1, LCLC97TM1; read-out: LCLC97TM1 proliferation assay; EC50 [M] (arithmetic mean)
ZR-75-1 cells = assay: ZR-75-1 proliferation assay; format: cell-based; conditions: Homo sapiens, ZR-75-1, 144 h, Alamar Blue, read-out: ZR75-1 proliferation assay, EC50 [M] (arithmetic mean)
Description: (§1) For compound characterization cell survival assays were routinely run in two cell lines. ZR-75-1 is a breast carcinoma cell line containing a focal KAT6A amplification and high KAT6A protein expression. Proliferation of this cell line is inhibited upon treatment with KAT6A inhibitors. As a negative control cell line MDA-MB-436 were used. These cells carry a […] deletion of the KAT6A gene, have a low KAT6A protein expression and are not growth inhibited upon treatment with KAT6A inhibitors.
(§2) For measurements cell lines were plated at the below indicated concentration per […] in 96-well plates in a humidified incubator at 37° C. and 5% CO2.
ZR-75-1 (ATCC, CRL-1500; breast carcinoma); 3000 cells per well; culture medium: RPMI 1640 (Biochrom #FG 1215) medium containing 2.5% FBS (Biochrom #S0615).
(§3) Each sample was prepared as triplicate and rim wells were excluded. Plates were incubated at 37° C. and 5% CO2 for 144 h. Cell viability was measured by adding 10 μL of Alamar Blue Reagent (Invitrogen #DAL 1100) and plates were incubated for 2 h at 37° C. and 5% CO2. Fluorescence was measured at 590 nm wavelength with a Tecan Spark or Victor X3 MTP-Reader (PerkinElmer).

[1] = molecular target: T1, Recombinant human His-tagged Kat6a protein (amino acids 194-810) (Homo sapiens, UniProt Q92794); assay: Kat6a activity assay (TR-FRET, acetylation of Histone-H4-derived peptide); format: biochemical; conditions: 60 mins at 22° C., 220 nM H4 peptide, 600 nM Acetyl Coenzyme A, read-out: KAT6A - DPF/HAT domain IC50 [mol/l] (arithmetic mean)
T1 construct: Kat6a protein (amino acids 194-810); His
T1 sequence (Q92794 194-810): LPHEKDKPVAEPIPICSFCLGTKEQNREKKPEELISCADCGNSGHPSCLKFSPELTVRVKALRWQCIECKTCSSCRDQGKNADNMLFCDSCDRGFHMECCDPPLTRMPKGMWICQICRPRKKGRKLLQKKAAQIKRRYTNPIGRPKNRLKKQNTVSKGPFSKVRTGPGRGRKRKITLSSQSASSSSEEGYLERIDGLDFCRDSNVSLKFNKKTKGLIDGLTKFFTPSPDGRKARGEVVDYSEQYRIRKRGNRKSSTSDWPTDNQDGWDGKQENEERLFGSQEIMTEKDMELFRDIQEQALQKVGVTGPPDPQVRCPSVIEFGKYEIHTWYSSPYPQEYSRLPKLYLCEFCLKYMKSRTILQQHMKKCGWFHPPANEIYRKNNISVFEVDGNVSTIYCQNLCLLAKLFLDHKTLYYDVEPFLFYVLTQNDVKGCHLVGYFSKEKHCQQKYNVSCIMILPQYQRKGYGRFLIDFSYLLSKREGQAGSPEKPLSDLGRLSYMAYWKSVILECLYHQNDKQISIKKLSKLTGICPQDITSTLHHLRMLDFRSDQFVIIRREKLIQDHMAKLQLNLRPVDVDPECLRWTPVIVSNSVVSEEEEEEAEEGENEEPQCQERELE

MDA-MB-436 cells = assay: MDA-MB-436 proliferation assay (negative control cell line); format: cell-based; conditions: 144 h, Alamar Blue, read-out: MDA-MB-436 proliferation assay, EC50 [M] (arithmetic mean)
Description: as §1, §2
MDA-MB-436 (CLS, 300278; breast adenocarcinoma); 3000 cells per well; culture medium: DMEM/Ham's F12 (Biochrom #FG 4815) medium containing 2.5% FBS (Biochrom #S0615).
as §3

[2] = test system: ESR1 transcription in MVLN cells; assay: MVLN reporter assay: repression of ESR1 transcription (luciferase signal); format: cell-based; conditions: luciferase signal after 24 h, read-out: MVLN reporter assay, IC50 [M] (arithmetic mean)
In short: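 To control for cell loss, Alamar Blue (2 h, 530/590 nm) precedes the 24 h luciferase measurement. The reporter is an ERE from the Xenopus vitellogenin A2 gene driving luciferase, stably transfected into ER-expressing MVLN cells; duplicate samples.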

| IC50 [1] | EC50 (MDA-MB-436 cells; Homo sapiens) | IC50 ([2]; Homo sapiens, MVLN, 24 h) | EC50 (MDA-MB-436 cells) | IC50 [2] | SMILES | EC50 (LCLC97TM1) | EC50 (ZR-75-1 cells) |
| --- | --- | --- | --- | --- | --- | --- | --- |
| 8.72 nM | > 2e-05 M | 6.3e-08 M | – | – | CCC(C)Oc1ccc(C)cc1S(=O)(=O)NC(=O)c1cc2c(F)cc(N3CCC3)cc2o1 (centres unmarked) [Example 4, 6-(Azetidin-1-yl)-N-(2-{[butan-2-yl]oxy}-5-methylbenzene-1-sulfonyl)-4-fluoro-1-benzofuran-2-carboxamide] | 6.42e-07 M | 1.14e-07 M |
| 1.42 nM | > 2e-05 M | 6.43e-08 M | – | – | O=C(NS(=O)(=O)c1c(OCc2ccccc2)cccc1OC1CCC1)c1cc2c(F)cc(N3CCC3)cc2o1 [Example 5, 6-(Azetidin-1-yl)-N-[2-(benzyloxy)-6-(cyclobutyloxy)benzene-1-sulfonyl]-4-fluoro-1-benzofuran-2-carboxamide] | 9.88e-06 M | 3.57e-06 M |
| 34.9 nM | > 2e-05 M | 7.45e-08 M | – | – | CCOc1ccc(C)cc1S(=O)(=O)NC(=O)c1cc2c(F)cc(N3CCC3)cc2o1 [Example 6, 6-(Azetidin-1-yl)-N-(2-ethoxy-5-methylbenzene-1-sulfonyl)-4-fluoro-1-benzofuran-2-carboxamide] | 3.12e-07 M | 3.28e-08 M |
| 4.15 nM | > 2e-05 M | 1.23e-07 M | – | – | CCOc1cccc(OCc2ccccc2)c1S(=O)(=O)NC(=O)c1cc2c(F)cc(N3CCC3)cc2o1 [Example 7, 6-(Azetidin-1-yl)-N-[2-(benzyloxy)-6-ethoxybenzene-1-sulfonyl]-4-fluoro-1-benzofuran-2-carboxamide] | 2.92e-07 M | 3.7e-07 M |
| 7.12 nM | > 2e-05 M | 1.36e-07 M | – | – | CCCOc1cccc(OCC)c1S(=O)(=O)NC(=O)c1cc2c(F)cc(N3CCC3)cc2o1 [Example 10, 6-(Azetidin-1-yl)-N-(2-ethoxy-6-propoxybenzene-1-sulfonyl)-4-fluoro-1-benzofuran-2-carboxamide] | 6.61e-07 M | 2.21e-07 M |
| 4.47 nM | > 2e-05 M | 1.76e-07 M | – | – | CCCOc1cccc(OCCC)c1S(=O)(=O)NC(=O)c1cc2c(F)cc(N3CCC3)cc2o1 [Example 17, 6-(Azetidin-1-yl)-N-(2,6-dipropoxybenzene-1-sulfonyl)-4-fluoro-1-benzofuran-2-carboxamide] | 8.49e-07 M | 2.76e-07 M |
| 34.2 nM | – | – | > 2e-05 M | 3.03e-07 M | O=C(NS(=O)(=O)c1ccccc1-c1ccccc1)c1cc2c(F)cc(N3CCC3)cc2o1 [Example 20, Sodium {[6-(azetidin-1-yl)-4-fluoro-1-benzofuran-2-yl]carbonyl}([biphenyl]-2-ylsulfonyl)azanide] | 1.42e-06 M | 2.87e-07 M |
| 1.41 nM | > 2e-05 M | 4.95e-09 M | – | – | CCOc1ccc(C(C)(C)C)cc1S(=O)(=O)NC(=O)c1cc2c(F)cc(N3CCC3)cc2o1 [Example 78, 6-(azetidin-1-yl)-N-(5-tert-butyl-2-ethoxybenzene-1-sulfonyl)-4-fluoro-1-benzofuran-2-carboxamide] | 5.75e-08 M | 5.87e-08 M |
| 12.1 nM | > 2e-05 M | 7.27e-08 M | – | – | CC1(C)CCc2cccc(S(=O)(=O)NC(=O)c3cc4c(F)cc(N5CCC5)cc4o3)c2O1 [Example 80, 6-(Azetidin-1-yl)-N-(2,2-dimethyl-3,4-dihydro-2H-1-benzopyran-8-sulfonyl)-4-fluoro-1-benzofuran-2-carboxamide] | 3.17e-07 M | 1.49e-07 M |
| 1990 nM | > 2e-05 M | 1.2e-06 M | – | – | CCOc1ccccc1S(=O)(=O)NC(=O)c1cc2ccc(N3CC(F)(F)C3)cc2o1 [Example 118, 6-(3,3-Difluoroazetidin-1-yl)-N-(2-ethoxybenzene-1-sulfonyl)-1-benzofuran-2-carboxamide] | 2.72e-06 M | 2.46e-06 M |
| 1100 nM | > 2e-05 M | 3.04e-06 M | – | – | O=C(NS(=O)(=O)c1ccccc1-c1ccccc1)c1cc2ccc(N3CC(F)(F)C3)cc2o1 [Example 119, N-([1,1′-biphenyl]-2-sulfonyl)-6-(3,3-difluoroazetidin-1-yl)-1-benzofuran-2-carboxamide] | 1.46e-05 M | 3.7e-06 M |
| > 20000 nM | > 2e-05 M | > 2e-05 M | – | – | CCOc1ccccc1S(=O)(=O)NC(=O)c1cc2ccc(N3CC4(COC4)C3)cc2o1 [Example 125, N-(2-ethoxybenzene-1-sulfonyl)-6-(2-oxa-6-azaspiro[3.3]heptan-6-yl)-1-benzofuran-2-carboxamide] | > 2e-05 M | > 2e-05 M |
| 14.1 nM | 1.22e-05 M | 5.41e-08 M | – | – | O=C(NS(=O)(=O)c1cccc2ccc(Cl)nc12)c1cc2c(F)cc(N3CCC3)cc2o1 [Example 132, 6-(Azetidin-1-yl)-N-(2-chloroquinoline-8-sulfonyl)-4-fluoro-1-benzofuran-2-carboxamide] | 1.36e-07 M | 1.08e-07 M |
| 21.8 nM | > 2e-05 M | 6.41e-08 M | – | – | CCCOc1ccccc1S(=O)(=O)NC(=O)c1cc2c(F)cc(N3CCC3)cc2o1 [Example 133, 6-(Azetidin-1-yl)-4-fluoro-N-(2-propoxybenzene-1-sulfonyl)-1-benzofuran-2-carboxamide] | 6.64e-07 M | 1.61e-07 M |
| 18.3 nM | > 2e-05 M | 7.44e-08 M | – | – | Cc1ccc(OC(C)C)c(S(=O)(=O)NC(=O)c2cc3c(F)cc(N4CCC4)cc3o2)c1 [Example 134, 6-(Azetidin-1-yl)-4-fluoro-N-{5-methyl-2-[(propan-2-yl)oxy]benzene-1-sulfonyl}-1-benzofuran-2-carboxamide] | 3.76e-07 M | 8.18e-08 M |
| 10.5 nM | > 2e-05 M | 4.69e-08 M | – | – | CCOc1ccc(CC)cc1S(=O)(=O)NC(=O)c1cc2c(F)cc(N3CC(F)C3)cc2o1 [Example 153, N-(2-ethoxy-5-ethylbenzene-1-sulfonyl)-4-fluoro-6-(3-fluoroazetidin-1-yl)-1-benzofuran-2-carboxamide] | 1.6e-07 M | 4.98e-08 M |
| 13.4 nM | > 2e-05 M | 7.11e-08 M | – | – | O=C(NS(=O)(=O)c1cccc2ccc(Cl)nc12)c1cc2c(F)cc(N3CC(F)C3)cc2o1 [Example 154, N-(2-Chloroquinoline-8-sulfonyl)-4-fluoro-6-(3-fluoroazetidin-1-yl)-1-benzofuran-2-carboxamide] | 2.25e-07 M | 4.95e-08 M |
| 36.7 nM | > 2e-05 M | 7.14e-08 M | – | – | CC(C)Oc1ccccc1S(=O)(=O)NC(=O)c1cc2c(F)cc(N3CC(F)C3)cc2o1 [Example 155, 4-Fluoro-6-(3-fluoroazetidin-1-yl)-N-{2-[(propan-2-yl)oxy]benzene-1-sulfonyl}-1-benzofuran-2-carboxamide] | 4.28e-07 M | 7.48e-08 M |
| 19.9 nM | > 2e-05 M | 7.43e-08 M | – | – | COc1cc(C)ccc1S(=O)(=O)NC(=O)c1cc2c(F)cc(N3CCC3)cc2o1 [Example 156, 6-(Azetidin-1-yl)-4-fluoro-N-(2-methoxy-4-methylbenzene-1-sulfonyl)-1-benzofuran-2-carboxamide] | 6.6e-07 M | 1.34e-07 M |
